Calls of active or inactive are those of the source.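 Rule for the calls: active = lipid-stain IC50 at or below a set limit, with nuclear-stain toxicity IC50 at least five times higher; inactive = the rest.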
How the values were obtained:
TAG = TAG lipid buildup inhibition with viability readout – cell-based, panel, Nile Red and DAPI fluorescence, H9c2, dose response (AID 651630); details: H9c2 cells, Nile Red TAG fluorescence, oleic acid;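 note: cells exposed to compound overnight before fixation and staining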
DAPI = assay: as above; details: H9c2 cells, DAPI nuclear fluorescence (cytotoxicity counter-readout), oleic acid

Compound | IC50 (TAG; mean of runs) | IC50 (TAG; run 1) [µM] | IC50 (TAG; run 2) [µM] | IC50 cytotoxicity (DAPI nuclear signal decrease) (DAPI; mean of runs) | IC50 cytotoxicity (DAPI nuclear signal decrease) (DAPI; run 1) [µM] | IC50 cytotoxicity (DAPI nuclear signal decrease) (DAPI; run 2) [µM]
O=C(NC1CCCCC1)C(c1ccccc1)N(Cc1ccc2c(c1)OCO2)C(=O)c1cnsn1 (configuration not stated) | 18.7 µM (inactive) | 17.2 | 20.2 | > 25 µM (inactive) | > 25 | > 25
C=CC[C@@H](CC(=O)N(CCO)Cc1ccccc1)C(=O)N[C@H](COC(=O)[C@@H](CC=C)CC(=O)OC(C)(C)C)C(C)(C)C | 3.39 µM | 4.3 | 2.48 | – | > 25 | > 25
Cc1nn(-c2cccc(Cl)c2)c2nc(-c3ccncc3)cc(C(=O)N3CCOCC3)c12 | > 25 µM (inactive) | > 25 | > 25 | > 25 µM (inactive) | > 25 | > 25
CNCCCN1c2ccccc2CCc2ccccc21 | > 25 µM (inactive) | > 25 | > 25 | > 25 µM (inactive) | > 25 | > 25
COc1ccc2nc(NC(=O)c3cccc(OCc4c(C)noc4C)c3)sc2c1 | 17.6 µM (inactive) | 17.4 | 17.8 | > 25 µM (inactive) | > 25 | > 25
COc1cc(OC)c2c(-c3ccccc3)cc(=O)oc2c1C(CCN1CCN(c2ccccc2)CC1)c1ccc(N(C)C)cc1 (configuration not stated) | 6.35 µM | 6.75 | 5.95 | > 25 µM (inactive) | > 25 | > 25
COc1cc2ccccc2cc1C(=O)N/N=C/c1cccs1 | > 25 µM (inactive) | > 25 | > 25 | > 25 µM (inactive) | > 25 | > 25
O=C1N=C(N2CCOCC2)S/C1=C/c1ccc(-c2ccc(F)cc2)o1 | 19.7 µM (inactive) | 18.6 | 20.7 | > 25 µM (inactive) | > 25 | > 25
Cn1nc(-c2ccc(Cl)cc2)c2cc(C(=O)NC3CC3)sc21 | 10.8 µM | 13 | 8.58 | > 25 µM (inactive) | > 25 | > 25
COc1ccc2cc3cc(C(=O)NCCc4ccc(OC)c(OC)c4)oc3nc2c1 | > 25 µM (inactive) | > 25 | > 25 | > 25 µM (inactive) | > 25 | > 25
Cc1ccc(NC(=O)CSc2nnc(C)c(=O)n2N)cc1Cl | – | 24 | > 25 | > 25 µM (inactive) | > 25 | > 25
C=CCNc1nc(Nc2ccc(OC)c(OC)c2)c2sc(-c3ccccc3)cc2n1 | 5.16 µM | 7.19 | 3.13 | > 25 µM (inactive) | > 25 | > 25
CCCCNc1c(-c2ccc(-c3ccc(C(C)=O)cc3)c(OC)c2)nc2cc(C)ccn12 | – | > 25 | 22.5 | > 25 µM (inactive) | > 25 | > 25
COc1ccc(-c2csc(NC(=S)NC(=O)/C=C/c3ccco3)n2)cc1Br | 8 µM | 5.89 | 10.1 | > 25 µM (inactive) | > 25 | > 25
CC1(C(=O)NCc2ccco2)Cc2c(-c3ccc4c(c3)OCO4)ccnc2O1 (configuration not stated) | – | 17.1 | > 25 | > 25 µM (inactive) | > 25 | > 25
C=CCC[C@@H](Cc1ccc(F)cc1)C(=O)OC[C@@H](Cc1c[nH]c2ccccc12)NC(=O)[C@@H](CC=C)CC(=O)N(CCO)Cc1ccccc1 | 8.26 µM | 7.1 | 9.42 | > 25 µM (inactive) | > 25 | > 25

Reference: PubChem BioAssay AID651630 (Sanford-Burnham Center for Chemical Genomics, 2012)
